Results reported in patent publication US7241785B2, “Five-membered heterocyclic alkanoic acid derivative” (Takeda Pharmaceutical Company Limited, priority 2001, dated 2007).

Columns and labels:
PPARδ-RXRα heterodimer [1] = target: T1, PPARδ-RXRα heterodimer (Homo sapiens, UniProt Q03181); assay: PPARδ-RXRα heterodimer ligand activity (luciferase reporter, transfected COS-1 cells); format: cell-based; parameters: expressed in transfected cells; host or cells: COS-1 (transient, lipofectamine); conditions: concentration for 50% of maximum fold induction of luciferase, 48 hrs
T1 sequence (Q03181 1-441): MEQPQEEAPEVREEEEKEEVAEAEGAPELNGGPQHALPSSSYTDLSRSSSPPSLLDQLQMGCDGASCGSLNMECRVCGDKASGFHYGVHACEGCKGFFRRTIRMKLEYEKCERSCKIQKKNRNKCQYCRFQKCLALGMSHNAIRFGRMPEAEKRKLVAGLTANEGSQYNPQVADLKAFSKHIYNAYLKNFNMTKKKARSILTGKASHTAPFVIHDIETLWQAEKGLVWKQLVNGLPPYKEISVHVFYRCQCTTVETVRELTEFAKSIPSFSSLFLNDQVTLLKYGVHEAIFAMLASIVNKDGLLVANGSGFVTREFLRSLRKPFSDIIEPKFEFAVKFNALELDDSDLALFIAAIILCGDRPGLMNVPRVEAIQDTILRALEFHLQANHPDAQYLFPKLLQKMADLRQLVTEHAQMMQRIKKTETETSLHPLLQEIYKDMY
T1 sequence (P19793 1-462 partner): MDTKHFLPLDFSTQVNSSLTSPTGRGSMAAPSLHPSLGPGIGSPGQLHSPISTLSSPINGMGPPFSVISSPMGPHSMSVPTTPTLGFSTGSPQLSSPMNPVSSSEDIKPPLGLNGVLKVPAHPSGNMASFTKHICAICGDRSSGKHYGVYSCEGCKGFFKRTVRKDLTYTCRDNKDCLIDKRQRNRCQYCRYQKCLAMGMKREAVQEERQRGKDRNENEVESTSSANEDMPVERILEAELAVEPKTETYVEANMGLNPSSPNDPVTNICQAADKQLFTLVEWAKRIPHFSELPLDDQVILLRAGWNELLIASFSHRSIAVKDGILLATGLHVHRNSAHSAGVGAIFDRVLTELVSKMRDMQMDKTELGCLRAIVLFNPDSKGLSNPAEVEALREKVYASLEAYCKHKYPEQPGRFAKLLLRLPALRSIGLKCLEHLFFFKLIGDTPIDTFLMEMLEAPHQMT
Method: (§1) PPARδ-RXRα Heterodimer Ligand Activity
The COS-1 cells obtained in Reference Example 9a were recovered, suspended in DMEM medium containing 0.1% fatty acid-free bovine serum albumin (BSA)(manufactured by Wako Pure Chemical Industries, Ltd.) (Nikken Biomedical Laboratory) and seeded in each well of a 96-well white plate (manufactured by Corning Costar Corporation, USA) at the density of 2×10^4 cells/well ([…]). Then, the test Compound ([…]) was added and the cells were cultured at 37° C., 5% CO2 for 48 hrs. The medium was removed from the 96-well white plate and PicaGine LT7.5 ([…], Wako Pure Chemical Industries) was added. After stirring, luciferase activity was measured using 1420 ARVO Multilabel Counter (Wallac)).
(§2) The fold induction was calculated from the luciferase activity of the test compound when the luciferase activity of the non-treatment group is taken as 1. The values of the test compound concentration and the fold induction were analyzed using PRISM 2.01 (produced by GraphPad Software Inc. USA) to calculate the EC50 values, the effective concentration of a test compound for 50% of the maximum fold induction.
Introduction of Plasmid and Reporter Plasmid for Expression of Human PPARδ, RXRα into COS-1 Cell […]

KKA^y mice [2] = assay: Hypoglycemic and hypolipidemic (hypotriglyceridemic) actions in mice; format: in vivo; conditions: Mus musculus, po, 96 h, 0.01% in powdery diet, four days
Method: Hypoglycemic and Hypolipidemic (Hypotriglyceridemic) Actions in Mice
Test compounds were mixed in a powdery diet (CE-2, Japan Clea) at the concentration of 0.01%, and freely given to KKA^y mice (11 to 12 weeks old, 5 mice per group), a model of type 2 diabetes mellitus, for four days. During this period, water was given freely. Blood was sampled from orbital venous plexus, and glucose and triglyceride levels in plasma separated from the blood were determined enzymatically using L type Wako Glu2 (Wako Pure Chemical Industries, Ltd.) or L type Wako TG.H (Wako Pure Chemical Industries, Ltd.), respectively.
In the Table, “hypoglycemic action (%)” represents a percent reduction (%) of the blood glucose level in the treatment group when the blood glucose level in the non-treatment group is taken as 100%. In addition, “hypolipidemic action (%)” represents a percent reduction (%) of the blood triglyceride level in the treatment group when the blood triglyceride level in the non-treatment group is taken as 100%.

KKA^y mice [3] = assay: Total cholesterol lowering action and plasma anti-arteriosclerosis index-enhancing action in mice; format: in vivo; conditions: Mus musculus, po, 96 h, 0.01% in powdery diet, four days
Method: Total Cholesterol Lowering Action and Plasma Anti-Arteriosclerosis Index-Enhancing Action in Mice
Test compounds were mixed in a powdery diet (CE-2, Japan Clea concentration of 0.01%, and freely given to KKA^y mice (11 to 12 weeks old, 5 mice per group), a model of type 2 diabetes mellitus, for four days. During this period, water was given freely. Blood was sampled from orbital venous plexus, and components in plasma separated from the blood were determined. Total cholesterol levels were determined using L type Wako Cholesterol (Wako Pure Chemical Industries, Ltd.). Precipitation reagent for HDL cholesterol was added to a part of the plasma to precipitate non-HDL lipoprotein, and cholesterol (HDL cholesterol) in the resulting supernatant was determined. The plasma anti-arteriosclerosis index [(HDL cholesterol/total cholesterol)×100] was calculated using these cholesterol levels.
In the Table, “total cholesterol lowering action (%)” represents a percent reduction (%) of the total cholesterol level in the treatment group when the total cholesterol level in the non-treatment group is taken as 100%. In addition, “plasma anti-arteriosclerosis index-enhancing action (%)” represents a percent increase (%) of the plasma anti-arteriosclerosis index in the treatment group when the plasma anti-arteriosclerosis index in the non-treatment group is taken as 100%.

PPARδ-RXRα heterodimer [4] = target: T1, PPARδ-RXRα heterodimer; assay: PPARδ-RXRα heterodimer ligand activity (luciferase reporter, PPARδ:RXRα:4ERPP/CHO-K1 cells); format: cell-based; parameters: expressed in transfected cells; conditions: concentration for 50% of maximum fold induction of luciferase, 48 hrs
Method: as §1
PPARδ:RXRα:4ERPP/CHO-K1 cells obtained in Reference Example 5a were cultured in HAM F12 medium (produced by NISSUI SEIYAKU) containing 10% fetal bovine serum (produced by Life Technologies, Inc., USA) and then seeded in a 96-well white plate (produced by Corning Costar Corporation, USA) at the density of 2×10^4 cells/well, and cultured in a CO2 gas incubator at 37° C. overnight.
After washing the 96 well white plate with PBS (Phosphate-buffered saline), 90 μl of HAM F12 medium containing 0.1% fatty acid-free bovine serum albumin (BSA) and 10 μl of test compound were added, and the cells were cultured in a CO2 gas incubator at 37° C. for 48 hrs. After removing the medium, 40 μl of PicaGene 7.5 (produced by Wako Pure Chemical Industries, Ltd.) was added. After stirring, the luciferase activity was determined using Lumistar (produced by BMG Labtechnologies GmbH, Germany).
as §2, with “activity of each test compound” for “activity of the test compound”, “luciferase activity in the non-treatment” for “luciferase activity of the non-treatment”, “fold induction. […]” for “fold induction.”

EC50 (PPARδ-RXRα heterodimer [1]) [nM]	melting point [°C]	EC50 (PPARδ-RXRα heterodimer [4]) [nM]	Compound	inhibition in vivo at 0.01 % in diet (KKA^y mice [2]; percent reduction of blood glucose level vs non-treatment group (100%), read-out: Hypoglycemic action (%)) [%]	inhibition in vivo at 0.01 % in diet (KKA^y mice [2]; percent reduction of blood triglyceride level vs non-treatment group (100%), read-out: Hypolipidemic action (%)) [%]	change in vivo at 0.01 % in diet (KKA^y mice [3]; percent increase of index [(HDL cholesterol/total cholesterol)×100] vs non-treatment group (100%)) [%]	inhibition in vivo at 0.01 % in diet (KKA^y mice [3]; percent reduction of total cholesterol level vs non-treatment group (100%)) [%]
680			Cc1nc(SCc2ccc(OCc3nc(-c4ccccc4)oc3C)cc2)sc1CC(=O)O [Example 58, [4-methyl-2-[4-(5-methyl-2-phenyl-4-oxazolylmethoxy)benzylthio]thiazol-5-yl]acetic acid]				
260			Cc1nc(SCc2cccc(OCc3nc(-c4ccccc4)oc3C)c2)sc1CC(=O)O [Example 60, [4-methyl-2-[3-(5-methyl-2-phenyl-4-oxazolylmethoxy)benzylthio]thiazol-5-yl]acetic acid]				
	121 to 122	670	Cc1oc(-c2ccccc2)nc1COc1ccc(Sc2nc(-c3ccccc3)c(CCC(=O)O)s2)cc1 [Example 12, 3-[2-[4-(5-methyl-2-phenyl-4-oxazolylmethoxy)phenylthio]-4-phenyl-5-thiazolyl]propionic acid]	52	56	15	22
